Where two headings read alike, the source gives them in different places.
Target: T1, Human Cav3.1 calcium channel (Homo sapiens, UniProt O43497)
T1 construct: expressed in transfected cells; host or cells: HEK-293 natClytin/TASK1+Cav3.1 cell line
Experiment: Human Cav3.1 calcium channel patch clamp assay (SyncroPatch 384PE; single point and IC50, voltage dependent block)
Format: cell-based
Conditions: for % Inhibition (Single Point Data): patch clamp
Description: Certain compounds (as indicated) were tested for Human Cav3.1 calcium channel activity via a patch clamp assay as disclosed herein.
Pulse generation and data collection were performed with PatchController384 V1.3.0 and DataController384 V1.2.1 (Nanion Technologies). Offline analysis was performed using Excel and Graphpad Prism (V 8.4.2) with complete data files uploaded to Dotmatics. The access resistance and apparent membrane capacitance were estimated using built-in protocols. Current was recorded in whole cell configuration from a population of cells. The cells were lifted, triturated, and resuspended at 800,000 cells/ml. The cells were allowed to recover in the cell hotel prior to experimentation. Currents were recorded at room temperature. The external solution contained the following (in mM): NaCl 80, NMDG 60, KCl 4, MgCl2 1, CaCl2 6, glucose 5 and HEPES 10 (pH=7.4, Osmolarity˜300 mOsm). The extracellular solution was used as the wash, reference and compound delivery solution.
The compound plate was created at 2× concentrated in the extracellular solution. The compound was diluted to 1:2 when added to the recording well. The amount of DMSO in the extracellular solution was held constant at the level used for the highest tested concentration. For the voltage clamp experiments on Cav3.1, data were sampled at 10 KHz. After establishment of the seal and the passage in the whole cell configuration, the cells were held at −120 mV. Cav3.1 current was evoked using a 100 ms step to −20 mV (to measure resting state block), followed by a 1600 ms step to −65 mV and a second 100 ms step to −20 mV (to measure voltage dependent block). The voltage protocol was applied every 15 seconds in the absence and in the presence of the compounds under investigation. […] Current amplitude (pA) was measured in the peak 1 and 2. The average of last 3 sweeps of each liquid period (vehicle, compound under investigation, full block) was calculated. Nickel-sensitive current was used to calculate the % of inhibition in the presence of the compound under investigation.

[1] = Testing Conc 1.25, HEK-293 natClytin/TASK1+Cav3.1 cell line
[2] = voltage dependent block (VDB), HEK-293 natClytin/TASK1+Cav3.1 cell line, read-out: Cav3.1 IC50

T1 sequence (O43497 whole entry): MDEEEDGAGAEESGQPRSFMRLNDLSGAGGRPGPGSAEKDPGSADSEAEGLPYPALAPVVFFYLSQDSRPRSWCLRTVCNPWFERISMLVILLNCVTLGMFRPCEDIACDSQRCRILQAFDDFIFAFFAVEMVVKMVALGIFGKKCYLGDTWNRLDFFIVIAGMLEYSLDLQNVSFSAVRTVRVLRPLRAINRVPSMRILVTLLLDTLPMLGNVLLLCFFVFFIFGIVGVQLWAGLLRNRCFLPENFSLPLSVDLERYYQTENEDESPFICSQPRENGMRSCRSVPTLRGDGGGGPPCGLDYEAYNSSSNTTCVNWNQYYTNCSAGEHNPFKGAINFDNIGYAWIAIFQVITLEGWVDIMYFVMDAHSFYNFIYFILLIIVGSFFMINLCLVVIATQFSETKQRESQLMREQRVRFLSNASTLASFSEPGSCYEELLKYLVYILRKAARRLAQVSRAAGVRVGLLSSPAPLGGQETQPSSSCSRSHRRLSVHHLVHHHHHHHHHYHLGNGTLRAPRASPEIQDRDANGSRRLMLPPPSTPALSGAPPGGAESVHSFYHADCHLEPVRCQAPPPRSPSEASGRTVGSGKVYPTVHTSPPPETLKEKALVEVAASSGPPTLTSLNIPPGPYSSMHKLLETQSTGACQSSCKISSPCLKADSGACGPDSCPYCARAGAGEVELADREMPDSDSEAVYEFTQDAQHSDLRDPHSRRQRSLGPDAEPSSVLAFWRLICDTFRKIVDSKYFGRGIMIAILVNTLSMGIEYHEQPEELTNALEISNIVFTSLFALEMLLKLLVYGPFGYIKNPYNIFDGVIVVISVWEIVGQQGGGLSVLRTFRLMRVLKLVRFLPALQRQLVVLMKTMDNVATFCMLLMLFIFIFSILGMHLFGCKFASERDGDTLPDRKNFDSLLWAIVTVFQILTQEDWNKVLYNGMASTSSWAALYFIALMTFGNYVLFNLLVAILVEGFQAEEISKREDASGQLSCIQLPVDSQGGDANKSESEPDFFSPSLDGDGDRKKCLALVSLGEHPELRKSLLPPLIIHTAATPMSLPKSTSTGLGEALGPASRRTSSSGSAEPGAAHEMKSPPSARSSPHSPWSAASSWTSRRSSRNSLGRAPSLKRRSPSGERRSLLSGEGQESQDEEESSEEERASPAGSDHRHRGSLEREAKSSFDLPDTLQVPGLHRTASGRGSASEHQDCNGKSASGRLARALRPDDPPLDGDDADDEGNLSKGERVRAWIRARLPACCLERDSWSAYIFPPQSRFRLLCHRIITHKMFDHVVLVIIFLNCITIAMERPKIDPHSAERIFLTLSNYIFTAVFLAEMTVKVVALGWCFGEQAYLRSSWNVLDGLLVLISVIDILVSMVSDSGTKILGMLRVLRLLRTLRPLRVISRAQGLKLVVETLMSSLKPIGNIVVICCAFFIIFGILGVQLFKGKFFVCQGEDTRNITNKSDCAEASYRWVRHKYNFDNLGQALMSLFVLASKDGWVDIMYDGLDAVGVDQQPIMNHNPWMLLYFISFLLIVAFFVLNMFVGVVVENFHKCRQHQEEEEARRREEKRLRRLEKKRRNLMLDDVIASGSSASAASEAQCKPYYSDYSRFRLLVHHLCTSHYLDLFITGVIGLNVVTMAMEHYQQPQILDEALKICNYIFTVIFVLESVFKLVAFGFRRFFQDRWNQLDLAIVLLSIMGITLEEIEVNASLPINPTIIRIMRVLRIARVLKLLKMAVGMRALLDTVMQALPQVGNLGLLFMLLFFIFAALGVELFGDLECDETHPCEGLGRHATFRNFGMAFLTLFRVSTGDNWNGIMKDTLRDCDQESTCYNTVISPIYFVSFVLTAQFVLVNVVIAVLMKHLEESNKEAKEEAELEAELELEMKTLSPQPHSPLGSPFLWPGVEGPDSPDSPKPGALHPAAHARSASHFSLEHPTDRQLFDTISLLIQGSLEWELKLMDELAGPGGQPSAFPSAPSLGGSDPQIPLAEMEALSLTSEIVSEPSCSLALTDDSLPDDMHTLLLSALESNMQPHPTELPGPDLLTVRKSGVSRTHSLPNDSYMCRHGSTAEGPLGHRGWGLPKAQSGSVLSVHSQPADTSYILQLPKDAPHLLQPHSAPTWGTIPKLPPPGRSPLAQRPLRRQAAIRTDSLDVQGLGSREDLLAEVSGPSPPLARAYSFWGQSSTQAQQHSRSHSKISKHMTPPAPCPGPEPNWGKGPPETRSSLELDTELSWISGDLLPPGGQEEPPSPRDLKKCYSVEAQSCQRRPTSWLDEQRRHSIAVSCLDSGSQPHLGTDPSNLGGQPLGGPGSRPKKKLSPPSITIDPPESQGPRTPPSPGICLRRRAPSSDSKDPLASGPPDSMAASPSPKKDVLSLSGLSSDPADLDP

Compound | % Inhibition (Single Point Data) [1] | IC50 [2] | % Inhibition (Single Point Data) (Testing Conc 1, HEK-293 natClytin/TASK1+Cav3.1 cell line) | IC50
CC(C)(NC(=O)CN1CC2CC1CN2CC(=O)Nc1cc(F)cc(OC(F)F)c1)C(F)(F)F (stereo not drawn) [Compound 55] | 76.829% | – | – | –
O=C(CN1CC2CC1CN2CC(=O)NC1(C(F)(F)F)CC1)Nc1cc(F)cc(OC(F)F)c1 (stereo not drawn) [Compound 56] | 70.217% | 297 nM | – | –
[2H]C([2H])([2H])C(NC(=O)CN1CC2CC1CN2CC(=O)Nc1cc(F)cc(Cl)c1)(C([2H])([2H])[2H])C([2H])([2H])[2H] (stereo not drawn) [Compound 57] | 95.078% | – | – | –
CC(C)(C)NC(=O)CN1C[C@@H]2C[C@H]1CN2CC(=O)Nc1cc(F)cc(Cl)c1 [Compound 58] | 91.889% | – | – | –
CC(C)(C)NC(=O)CN1C[C@H]2C[C@@H]1CN2CC(=O)Nc1cc(F)cc(Cl)c1 [Compound 59] | 49.275% | 925 nM | – | –
CC(C)(C)NC(=O)CN1C[C@@H]2C[C@H]1CN2CCNc1nccc2ccc(Cl)cc12 [Compound 60] | 60.189% | 605 nM | – | –
CC(C)(C)NC(=O)CN1CCN(Cc2nnc(-c3cc(F)cc(Cl)c3)[nH]2)CC1 [Compound 61, N-tert-butyl-2-[4-[[5-(3-chloro-5-fluoro-phenyl)-4H-1,2,4-triazol-3-yl]methyl]piperazin-1-yl]acetamide] | – | 2800 nM | 40.739% | –
CC(C)(C)NC(=O)CN1C2CC1CN(Cc1nc3c(Cl)cc(F)cc3[nH]1)C2 [Compound 62, N-(tert-butyl)-2-(3-((4-chloro-6-fluoro-1H-benzo[d]imidazol-2-yl)methyl)-3,6-diazabicyclo[3.1.1]heptan-6-yl)acetamide] | 102.05% | – | – | < 78.2 nM
CC(C)(C)NC(=O)CN1CC2CCC1CN2Cc1nc2c(Cl)cc(F)cc2[nH]1 (stereo not drawn) [Compound 63] | 93.839% | 167 nM | – | –
CC(C)(C)NC(=O)CN1C2CCC1CN(Cc1nc3c(Cl)cc(F)cc3[nH]1)C2 [Compound 64] | 100.15% | – | – | < 78.2 nM
CC(C)(C)NC(=O)CN1C2CCC1CN(Cc1nc3c(Cl)cc(F)cc3[nH]1)CC2 (stereo not drawn) [Compound 65] | 82.104% | 708 nM | – | –
COc1cccc(CN2CCN(Cc3nc4c(Cl)cc(F)cc4[nH]3)CC2)c1 [Compound 66] | 88.018% | 306 nM | – | –
Fc1cc(Cl)c2nc(CN3CCN(Cc4cccc(Cl)c4)CC3)[nH]c2c1 [Compound 67] | 83.039% | 490 nM | – | –
Fc1cc(Cl)c2nc(CN3CCN(Cc4ccc5c(c4)OCCO5)CC3)[nH]c2c1 [Compound 68] | 87.04% | 215 nM | – | –
Fc1cc(Cl)c2nc(CN3CCN(CCc4ccccc4)CC3)[nH]c2c1 [Compound 69] | 86.68% | 394 nM | – | –
CC(C)(C)NC(=O)CN1CCCN(Cc2nc3c(Cl)cc(F)cc3[nH]2)CC1 [Compound 70] | 87.175% | 545 nM | – | –
Fc1cc(Cl)c2nc(CN3CCN(CCC4CCCC4)CC3)[nH]c2c1 [Compound 71] | 94.005% | – | – | –
Fc1cc(Cl)c2nc(CN3CCN(Cc4cc5ccccc5[nH]4)CC3)[nH]c2c1 [Compound 72] | 81.94% | 395 nM | – | –
CC(C)(C)CCN1CCN(Cc2nc3c(Cl)cc(F)cc3[nH]2)CC1 [Compound 73] | 84.745% | 188 nM | – | –
CC(C)(C)NC(=O)CN1CC2CCC1CCN2Cc1nc2c(Cl)cc(F)cc2[nH]1 (stereo not drawn) [Compound 74] | 72.584% | 575 nM | – | –
CCC(C)(C)NC(=O)CN1C2CCC1CN(Cc1nc3c(Cl)cc(F)cc3[nH]1)C2 [Compound 75] | 99.169% | – | – | –
CC(C)(NC(=O)CN1C2CCC1CN(Cc1nc3c(Cl)cc(F)cc3[nH]1)C2)C(F)(F)F [Compound 76] | 100.39% | – | – | –
CC(C)(C)CCN1C2CCC1CN(Cc1nc3c(Cl)cc(F)cc3[nH]1)C2 [Compound 77] | 100.45% | – | – | –
